Where a name gives a salt, the structure may show the parent alone. Read-outs that look alike come from different tables or passages of the source.
Columns and labels:
MT-4 cells = tested on: MT-4 cells; design: method as in pmid 19265512; settings: MT-4 cells in the presence of 20% NHS; ref pmid 19265512; read-out: antiviral EC90; cited from earlier work
IN = tested on: IN; design: method as in pmid 19265512; settings: in vitro strand transfer assay; ref pmid 19265512; read-out: IC50, inhibition of IN; cited from earlier work
[1] = tested on: SARS-CoV-2 Spike protein containing PPs, entry into HEK293-ACE2 cells; assay: microbe, parasite or virus in culture; type: cell-based; settings: PP entry, HEK293-ACE2, 48 h, mean ± SD of two independent experiments; for IC50: Severe acute respiratory syndrome coronavirus 2, 11 concentrations
[2] = tested on: cell viability (tox21-car-agonist-p1); settings: cited from earlier work
[3] = tested on: cell viability (tox21-car-antagonist-p1); settings: cited from earlier work
[4] = tested on: cell viability (tox21-ar-mda-kb2-luc-antagonist-p2); settings: cited from earlier work
[5] = tested on: cell viability (tox21-ar-mda-kb2-luc-agonist-p3); settings: cited from earlier work
[6] = tested on: cell viability (tox21-ap1-agonist-p1); settings: cited from earlier work
[7] = tested on: cell viability (tox21-are-bla-p1); settings: cited from earlier work
[8] = tested on: wild-type (WT) and drug-resistant HIV-1 isolates; design: method as in pmid 18043758; settings: multiple wild-type and drug-resistant HIV-1 isolates; ref pmid 18043758; cited from earlier work
[9] = tested on: hepatitis B surface antigen (HBsAg) secretion; design: method as in PMID 17723297; settings: Hep G2.2.15 cell line; read-out: IC50, inhibition of HBsAg secretion; cited from earlier work
[10] = curve rank −9 to 9, 0 = inactive, ref NCATS Tox21 public data browser

Row | Structure (SMILES) | tox21-car-agonist-p1-viability (curve rank) [2] | tox21-car-antagonist-p1-viability (curve rank) [3] | tox21-ar-mda-kb2-luc-antagonist-p2-viability (curve rank) [4] | tox21-ar-mda-kb2-luc-agonist-p3-viability (curve rank) [5] | tox21-ap1-agonist-p1-viability (curve rank) [6] | tox21-are-bla-p1-viability (curve rank) [7] | other results
1 | Cn1c(=O)c(C(=O)NCCO)c(O)c2ncc(Cc3ccc(F)cc3)cc21 [GSK-364735] |  |  |  |  |  |  | EC90 (MT-4 cells): 40 nM; IC50 (IN): 8 nM
2 | N=c1ccn(C2OC(COP(=O)(O)O)C(O)C2O)c(=O)[nH]1 (centres unmarked) [NCGC00014029] |  |  |  |  |  |  | efficacy [1]: −76.63 ± 14.92%; IC50 [1]: 1310 ± 320 nM
3 | COc1ccc(-c2nc3ccccc3n2Cc2ccccc2)cc1COc1ccc(NC(C)=O)cc1 [NCGC00166392] |  |  |  |  |  |  | efficacy [1]: −83.25 ± 8.42%; IC50 [1]: 1370 nM
4 | COc1ccc(-c2csc3ncnc(N(C)CCO)c23)cc1 [NCGC00608516] |  |  |  |  |  |  | efficacy [1]: −93.10 ± 32.33%; IC50 [1]: 11700 ± 2820 nM
5 | COc1ccc(C(CNC(=O)c2ccc3ccccc3n2)N2CCCC2)cc1 (centres unmarked) [NCGC00622469] |  |  |  |  |  |  | efficacy [1]: −64.06 ± 9.68%; IC50 [1]: 5910 ± 7000 nM
6 | O=C(Nc1nc(-c2ccc(F)cc2)cs1)c1c(F)cccc1F [NCGC00633127] |  |  |  |  |  |  | efficacy [1]: −67.42 ± 5.30%; IC50 [1]: 4590 ± 370 nM
7 | Cc1ncc([N+](=O)[O-])n1CC(C)O (centres unmarked) [Secnidazole] |  |  |  |  |  |  | tox21-car-agonist-p1-viability (curve rank) [2, 10]: 0; tox21-car-antagonist-p1-viability (curve rank) [3, 10]: 0; tox21-ar-mda-kb2-luc-antagonist-p2-viability (curve rank) [4, 10]: 0; tox21-ar-mda-kb2-luc-agonist-p3-viability (curve rank) [5, 10]: 0; tox21-ap1-agonist-p1-viability (curve rank) [6, 10]: 0; tox21-are-bla-p1-viability (curve rank) [7, 10]: 0
8 | C#CCN(C)[C@H](C)Cc1ccccc1 [Selegiline hydrochloride] |  |  |  |  |  |  | tox21-car-agonist-p1-viability (curve rank) [2, 10]: 0; tox21-car-antagonist-p1-viability (curve rank) [3, 10]: 0; tox21-ar-mda-kb2-luc-antagonist-p2-viability (curve rank) [4, 10]: 0; tox21-ar-mda-kb2-luc-agonist-p3-viability (curve rank) [5, 10]: 0; tox21-ap1-agonist-p1-viability (curve rank) [6, 10]: 0; tox21-are-bla-p1-viability (curve rank) [7, 10]: 0
9 | Cc1cc(CC(=O)[O-])n(C)c1C(=O)c1ccc(Cl)cc1.[Na+] [Sodium zomepirac] |  |  |  |  |  |  | tox21-car-agonist-p1-viability (curve rank) [2, 10]: 0; tox21-car-antagonist-p1-viability (curve rank) [3, 10]: 0; tox21-ar-mda-kb2-luc-antagonist-p2-viability (curve rank) [4, 10]: 0; tox21-ar-mda-kb2-luc-agonist-p3-viability (curve rank) [5, 10]: 0; tox21-ap1-agonist-p1-viability (curve rank) [6, 10]: 0; tox21-are-bla-p1-viability (curve rank) [7, 10]: 0
10 | COc1cc(NS(=O)(=O)c2ccc(N)cc2)nc(OC)n1 [Sulfadimethoxine] | 0 | 0 | 0 | 0 | 0 | 0 | 
11 | [H]/N=C(/N)NS(=O)(=O)c1ccc(N)cc1 [Sulfaguanidine] | 0 | 0 | 0 | 0 | 0 | 0 | 
12 | Nc1ccc(S(=O)(=O)Nc2ccnn2-c2ccccc2)cc1 [Sulfaphenazole] | 0 | 0 | 0 | 0 | 0 | 0 | 
13 | Nc1ccc(S(=O)(=O)Nc2ccccn2)cc1 [Sulfapyridine] | 0 | 0 | 0 | 0 | 0 | 0 | 
14 | O=C1C(CC[S+]([O-])c2ccccc2)C(=O)N(c2ccccc2)N1c1ccccc1 (centres unmarked) [Sulfinpyrazone] | 0 | 0 | 0 | 0 | 0 | 0 | 
15 | CCCCC1(COC(=O)CCC(=O)O)C(=O)N(c2ccccc2)N(c2ccccc2)C1=O [Suxibuzone] | 0 | 0 | 0 | 0 | 0 | 0 | 
16 | Cc1scc2c1N(C(=O)CN1CCN(C)CC1)c1ccccc1NC2=O [Telenzepine] | 0 | 0 | 0 | 0 | 0 | 0 | 
17 | c1ccc2c(c1)CCCC2C1=NCCN1 (centres unmarked) [Tetrahydrozoline hydrochloride] | 0 | 0 | 0 | 0 | 0 | 0 | 
18 | CC(C(=O)O)c1ccc(C(=O)c2ccccc2)s1 (centres unmarked) [Tiaprofenic acid] | 0 | 0 | 0 | 0 | 0 | 0 | 
19 | CCS(=O)(=O)CCn1c([N+](=O)[O-])cnc1C [Tinidazole] | 0 | 0 | 0 | 0 | 0 | 0 | 
20 | COc1cccc(C2(O)CCCCC2CN(C)C)c1.Cl (centres unmarked) [Tramadol hydrochloride] |  |  |  |  |  |  | tox21-car-agonist-p1-viability (curve rank) [2, 10]: 0; tox21-car-antagonist-p1-viability (curve rank) [3, 10]: 0; tox21-ar-mda-kb2-luc-antagonist-p2-viability (curve rank) [4, 10]: 0; tox21-ar-mda-kb2-luc-agonist-p3-viability (curve rank) [5, 10]: 0; tox21-ap1-agonist-p1-viability (curve rank) [6, 10]: 0; tox21-are-bla-p1-viability (curve rank) [7, 10]: 0
21 | COc1cc(C(=O)NCc2ccc(OCCN(C)C)cc2)cc(OC)c1OC [Trimethobenzamide hydrochloride] | 0 | 0 | 0 | 0 | 0 | 0 | 
22 | CC[C@]12CCCN3CCc4c(n(c5ccccc45)[C@@](O)(C(=O)OC)C1)[C@@H]32 [Vincamine] |  |  |  |  |  |  | tox21-car-agonist-p1-viability (curve rank) [2, 10]: 0; tox21-car-antagonist-p1-viability (curve rank) [3, 10]: 0; tox21-ar-mda-kb2-luc-antagonist-p2-viability (curve rank) [4, 10]: 0; tox21-ar-mda-kb2-luc-agonist-p3-viability (curve rank) [5, 10]: 0; tox21-ap1-agonist-p1-viability (curve rank) [6, 10]: 0; tox21-are-bla-p1-viability (curve rank) [7, 10]: 0
23 | COc1cc(-c2ccc(=O)[nH]n2)ccc1OC(F)F [Zardaverine] |  |  |  |  |  |  | tox21-car-agonist-p1-viability (curve rank) [2, 10]: 0; tox21-car-antagonist-p1-viability (curve rank) [3, 10]: 0; tox21-ar-mda-kb2-luc-antagonist-p2-viability (curve rank) [4, 10]: 0; tox21-ar-mda-kb2-luc-agonist-p3-viability (curve rank) [5, 10]: 0; tox21-ap1-agonist-p1-viability (curve rank) [6, 10]: 0; tox21-are-bla-p1-viability (curve rank) [7, 10]: 0
24 | CC1=C2[C@H]3OC(=O)[C@@H](C)[C@@H]3CC[C@@]2(C)C=CC1=O [alpha-Santonin] |  |  |  |  |  |  | tox21-car-agonist-p1-viability (curve rank) [2, 10]: 0; tox21-car-antagonist-p1-viability (curve rank) [3, 10]: 0; tox21-ar-mda-kb2-luc-antagonist-p2-viability (curve rank) [4, 10]: 0; tox21-ar-mda-kb2-luc-agonist-p3-viability (curve rank) [5, 10]: 0; tox21-ap1-agonist-p1-viability (curve rank) [6, 10]: 0; tox21-are-bla-p1-viability (curve rank) [7, 10]: 0
25 | C=C(C)[C@@H]1CC[C@]2(C(=O)O)CC[C@]3(C)[C@H](CC[C@@H]4[C@@]5(C)CC[C@H](OC(=O)CC(C)(C)C(=O)O)C(C)(C)[C@@H]5CC[C@]43C)[C@@H]12 [bevirimat, 3-O-(3',3'-dimethylsuccinyl) betulinic acid] |  |  |  |  |  |  | in vitro antiviral activity [8]: 10 nM
26 | COc1cc2c3c(c1O)C1(C=CC(=O)C=C1)CC3N(C)CC2 (centres unmarked) [glaziovine] |  |  |  |  |  |  | IC50 [9]: 8000 nM
